Results taken from US8507440B2, “Protein kinase C peptides for use in withdrawal” (The Board of Trustees of the Leland Stanford Junior …, priority 2002, dated 2013).
Ends that are not written are not given here.

How the values were obtained:
γPKC = target: T1, γPKC (Rattus norvegicus, UniProt P63319); format: cell-based
T1 construct: from tissue; host or cells: lumbar spinal cord slices of postnatal day 7-10 Sprague-Dawley rats
Procedure: Fluorescence immunocytochemical studies were performed on the spinal cord sections, as described in Example 3. The sections were incubated with an anti-γPKC antibody and an anti-neuronal antibody to identify neurons. […] Translocation of γPKC was quantified by counting the number of cells with γPKC localized to the nucleus before (control) and after application of ethanol, as well as after washing with artificial cerebrospinal fluid. […] Two to three sections per animal were counted.
Fluorescence immunocytochemical studies were performed on spinal cord sections […] from control slices (perfused with ACSF for 70 minutes) and EtOH treated slices (perfused with ACSF for 30 minutes followed by 20 min 100 mM EtOH and 20 min wash with ACSF). The sections were incubated with a rabbit anti-PKCg polyclonal antibody (1:500) overnight at 4° C. In some cord sections, a mouse anti-neuronal nuclei monoclonal antibody (NeuN, 1:750) was added to identify neurons. After several washes with ACSF, the sections were labeled for 2 hours at room temperature with fluorescein-labeled secondary antibodies (1:500). Double immunofluorescence was assessed with a laser confocal microscope.

[1] = tested on: 7 day old and 21 day old rats; assay: ethanol withdrawal thermal hyperalgesia testing (paw withdrawal latency); format: in vivo, rat; conditions: 7 day old rats; intrathecally 4 hours after 4 g/kg 15% EtOH
[2] = tested on: N-methyl-D-aspartate (NMDA) receptor currents; assay: alcohol withdrawal hyperresponsiveness of NMDA-evoked currents in lumbar spinal cord slice motor neurons; format: cell-based, rat
Description: Spinal cords were taken from young rats, and slices of these cords were made and placed in artificial cerebrospinal fluid for patch clamp electrophysiological analysis, to characterize the ability of γPKC peptides to mediate alcohol withdrawal hyperresponsiveness of N-methyl-D-aspartate (NMDA) receptor currents. FIG. 7A is a schematic diagram of the technique, where a lumbar spinal cord slice 10 is shown. The placement of a recording electrode 12 and a pipette 14 for application of NMDA relative to a motor neuron 16 is illustrated.
Sprague-Dawley rats at postnatal day 7-10 were anesthetized with halothane, decapitated, and the spinal cords were quickly removed. Slices […] thick were sectioned from the lumbar region. Whole cell voltage clamp recordings were made from visually-identified motor neurons using infrared video microscopy, a 60× water immersion lens, and a MultiClamp 700A patch clamp amplifier. Cells were held at a holding potential of −60 mV in artificial cerebrospinal fluid (ACSF) containing bicuculline methiodide ([…]), strychnine ([…]), and tetrodotoxin ([…]). Postsynaptic currents were evoked by direct pressure application of 2 mM N-methyl-D-aspartate (NMDA) from a pipette positioned near the recorded cell at 1-2 min intervals, as illustrated in FIG. 7A. The area of evoked currents during and following 100 mM ethanol (EtOH) application was measured and normalized to the average baseline current area during the 10 minutes preceding EtOH application. Data are expressed as mean +/−SEM: Statistical significance was determined by one-way ANOVA followed by Dunn's or Tukey's multiple comparison test with significance set at p<0.05.

postnatal day 7 rats = assay: natural morphine withdrawal, mechanical allodynia and thermal hyperalgesia in vivo; set-up: species or system rat; conditions: 10 μM intrathecally 2.5 hours after morphine 1 mg/kg; p<0.05 versus Tat carrier or saline
Procedure: Another study was performed to investigate the roles of PKC isozymes in natural withdrawal, which more closely resembles the clinical setting in addictive sequela. In this study, postnatal day 7 rats were given a single injection of morphine (1 mg/kg) and allowed to undergo natural withdrawal, i.e., naloxone was not administered to precipitate withdrawal. The treatment protocol is shown in FIG. 6A, where 2.5 hours after morphine delivery, εV1-2 or γV5-3 peptide inhibitors were administered intrathecally. Mechanical allodynia and thermal hyperalgesia were evaluated at hourly intervals according to the procedure described in Example 2.
To measure mechanical thresholds, rats were placed on an elevated wire mesh (2 mm openings). Von Frey hairs (Stoelting Co., WoodDale, Ill., USA) were used to elicit a cutaneous flexion withdrawal response as described by Fitzgerald et al. (Fitzgerald M., et al., PAIN […] INFANTS, CHILDREN AND ADOLESCENTS; Schetchter and Yaster, Eds., pp 11-32, Williams and Williams (Baltimore, Md.) (1993). Von Frey hairs of increasing intensity were applied three times to the plantar surface of the left hind paw until a paw withdrawal was elicited. The lowest intensity Von Frey hair required to produce a withdrawal reflex was recorded as the response threshold to a low-intensity mechanical stimulus. […]

With “RLVLAS (also: Tat peptide conjugate; listed as Homo sapiens) [γV5-3]” the “number of cells having γPKC localized in the nucleus” value (γPKC; peptide applied 20 minutes prior to ethanol) was “about 14”, the “block of γPKC translocation to the cytoplasm” value (γPKC; peptide applied prior to ethanol exposure) was “effective to block γPKC translocation to the cytoplasm” and the “thermal hyperalgesia, paw withdrawal latency” value [1] was “completely prevented thermal hyperalgesia”. For the same substance, the “block of ethanol withdrawal hyperresponsiveness of NMDA-evoked currents” value ([2]; 2 nM peptide, ethanol 100 mM 15 minutes then wash) was “did not completely block withdrawal hyperresponsiveness”, the “block of ethanol withdrawal hyperresponsiveness of NMDA-evoked currents” value ([2]; 5-10 nM peptide, ethanol 100 mM then wash) was “effectively blocked ethanol withdrawal hyperresponsiveness” and the “mechanical allodynia and thermal hyperalgesia during natural withdrawal from morphine” value (postnatal day 7 rats) was “attenuated mechanical allodynia and thermal hyperalgesia”.
